Measured values: PubChem BioAssay (NCI)
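48-hour exposure; five concentrations; linearly interpolated endpoints. TGI: total growth inhibition.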

What was measured:
Experiment in all cases: NCI-60 cell line screen, 48 h
[1] = test system: MALME-3M melanoma
[2] = test system: HT29 colon
[3] = test system: MCF7 breast
[4] = test system: T-47D breast
[5] = test system: NCI-H522 lung
[6] = test system: LOX IMVI melanoma
[7] = test system: OVCAR-5 ovarian
[8] = test system: OVCAR-3 ovarian
[9] = test system: HCT-15 colon
[10] = test system: EKVX NSCLC
[11] = test system: MDA-MB-231 breast
[12] = test system: 786-0 renal
[13] = test system: RPMI-8226 leukemia
[14] = test system: DU-145 prostate
[15] = test system: RXF 393 renal
[16] = test system: A498 renal
[17] = test system: K-562 leukemia
[18] = test system: SK-OV-3 ovarian
[19] = test system: NCI/ADR-RES ovarian
[20] = test system: HS 578T breast
[21] = test system: SNB-19 CNS
[22] = test system: SF-295 CNS
[23] = test system: OVCAR-4 ovarian
[24] = test system: SNB-75 CNS
[25] = test system: UACC-257 melanoma
[26] = test system: CCRF-CEM leukemia
[27] = test system: PC-3 prostate
[28] = test system: SF-268 CNS
[29] = test system: COLO 205 colon
[30] = test system: TK-10 renal
[31] = test system: HL-60(TB) leukemia
[32] = test system: NCI-H460 lung
[33] = test system: HCC-2998 colon
[34] = test system: MDA-N
[35] = test system: SW-620 colon
[36] = test system: CAKI-1 renal
[37] = test system: SF-539 CNS
[38] = test system: MDA-MB-435
[39] = test system: A549 NSCLC
[40] = test system: UO-31 renal
[41] = test system: U251 CNS
[42] = test system: SK-MEL-28 melanoma
[43] = test system: SN12C renal
[44] = test system: M14 melanoma
[45] = test system: ACHN renal
[46] = test system: SK-MEL-5 melanoma
[47] = test system: HOP-62 NSCLC
[48] = test system: MOLT-4 leukemia
[49] = test system: SR leukemia
[50] = test system: SK-MEL-2 melanoma
[51] = test system: NCI-H23 lung
[52] = test system: UACC-62 melanoma
[53] = test system: KM12 colon
[54] = test system: HCT-116 colon
[55] = test system: IGROV1 ovarian
[56] = test system: NCI-H226 lung
[57] = test system: OVCAR-8 ovarian
[58] = test system: HOP-92 NSCLC

COc1ccc2c(c1)c1c3c(ccc4ncn2c43)N(CCO)CCN=1
TGI [1]: 430 nM | TGI [2]: 898 nM | TGI [3]: 944 nM | TGI [4]: 1420 nM | TGI [5]: 277 nM | TGI [6]: 468 nM | TGI [7]: 715 nM | TGI [8]: 648 nM | TGI [9]: 611 nM | TGI [10]: 1080 nM | TGI [11]: 511 nM | TGI [12]: 1060 nM | TGI [13]: 2560 nM | TGI [14]: 1590 nM | TGI [15]: 473 nM | TGI [16]: 382 nM | TGI [17]: 228 nM | TGI [18]: 2030 nM | TGI [19]: 1760 nM | TGI [20]: 605 nM | TGI [21]: 1460 nM | TGI [22]: 831 nM | TGI [23]: 915 nM | TGI [24]: 1190 nM | TGI [25]: 1390 nM | TGI [26]: 305 nM | TGI [27]: 464 nM | TGI [28]: 1860 nM | TGI [29]: 158 nM | TGI [30]: 2230 nM | TGI [31]: 407 nM | TGI [32]: 484 nM | TGI [33]: 369 nM | TGI [34]: 808 nM | TGI [35]: 3640 nM | TGI [36]: 2510 nM | TGI [37]: 347 nM | TGI [38]: 834 nM | TGI [39]: 2220 nM | TGI [40]: 255 nM | TGI [41]: 1090 nM | TGI [42]: 941 nM | TGI [43]: 519 nM | TGI [44]: 772 nM | TGI [45]: 543 nM | TGI [46]: 403 nM | TGI [47]: 476 nM | TGI [48]: 656 nM | TGI [49]: 207 nM | TGI [50]: 359 nM | TGI [51]: 466 nM | TGI [52]: 602 nM | TGI [53]: 1220 nM | TGI [54]: 214 nM | TGI [55]: 5530 nM | TGI [56]: 522 nM | TGI [57]: 1720 nM | TGI [58]: 5200 nM

COc1ccc(S(=O)(=O)Nc2ccc(-c3csc(N4C(=O)/C(=C/c5ccccc5[N+](=O)[O-])N=C4c4ccccc4)n3)cc2)cc1Cl
TGI [1]: > 100000 nM | TGI [2]: > 100000 nM | TGI [3]: > 100000 nM | TGI [4]: 75200 nM | TGI [5]: > 100000 nM | TGI [6]: > 100000 nM | TGI [7]: > 100000 nM | TGI [8]: > 100000 nM | TGI [9]: 81200 nM | TGI [11]: 78500 nM | TGI [12]: > 100000 nM | TGI [14]: > 100000 nM | TGI [15]: > 100000 nM | TGI [16]: 59800 nM | TGI [17]: > 100000 nM | TGI [18]: > 100000 nM | TGI [19]: > 100000 nM | TGI [20]: > 100000 nM | TGI [21]: > 100000 nM | TGI [22]: > 100000 nM | TGI [23]: > 100000 nM | TGI [24]: > 100000 nM | TGI [25]: > 100000 nM | TGI [27]: > 100000 nM | TGI [28]: > 100000 nM | TGI [29]: > 100000 nM | TGI [30]: > 100000 nM | TGI [31]: > 100000 nM | TGI [32]: > 100000 nM | TGI [33]: 63500 nM | TGI [34]: > 100000 nM | TGI [35]: > 100000 nM | TGI [36]: > 100000 nM | TGI [37]: > 100000 nM | TGI [38]: > 100000 nM | TGI [39]: > 100000 nM | TGI [40]: 73800 nM | TGI [41]: > 100000 nM | TGI [42]: > 100000 nM | TGI [43]: > 100000 nM | TGI [44]: > 100000 nM | TGI [45]: > 100000 nM | TGI [46]: > 100000 nM | TGI [47]: > 100000 nM | TGI [48]: > 100000 nM | TGI [49]: > 100000 nM | TGI [50]: > 100000 nM | TGI [51]: 76800 nM | TGI [52]: > 100000 nM | TGI [53]: > 100000 nM | TGI [54]: > 100000 nM | TGI [55]: > 100000 nM | TGI [56]: > 100000 nM | TGI [57]: > 100000 nM | TGI [58]: 87500 nM
